The source made the active and inactive calls. No cut-off for these calls is given here.
How the values were obtained:
Rattus norvegicus [1] = assay: Anticonvulsant activity against maximal electroshock-induced convulsion in Rattus norvegicus albino (rat) assessed as recovery from convulsion at 25 mg/kg administered 1 hr before test; format: functional, organism-based; design: dose 25 mg/kg
Rattus norvegicus [2] = assay: Anticonvulsant activity against maximal electroshock-induced convulsion in Rattus norvegicus albino (rat) assessed as tonic extensor convulsion time at 25 mg/kg administered 1 hr before test; format: functional
Rattus norvegicus [3] = assay: Anticonvulsant activity against maximal electroshock-induced convulsion in Rattus norvegicus albino (rat) assessed as tonic flexor convulsion time at 25 mg/kg administered 1 hr before test; format: functional
Rattus norvegicus [4] = assay: Anticonvulsant activity against maximal electroshock-induced convulsion in Rattus norvegicus albino (rat) assessed as clonus convulsion time at 25 mg/kg administered 1 hr before test; format: functional
Rattus norvegicus [5] = assay: Anticonvulsant activity against maximal electroshock-induced convulsion in Rattus norvegicus albino (rat) assessed as stupor convulsion time at 25 mg/kg administered 1 hr before test; format: functional
Rattus norvegicus [6] = assay: Anticonvulsant activity against maximal electroshock-induced convulsion in Rattus norvegicus albino (rat) assessed as tonic extensor convulsion time at 50 mg/kg administered 1 hr before test; format: functional
Rattus norvegicus [7] = assay: Anticonvulsant activity against maximal electroshock-induced convulsion in Rattus norvegicus albino (rat) assessed as tonic flexor convulsion time at 50 mg/kg administered 1 hr before test; format: functional
Rattus norvegicus [8] = assay: Anticonvulsant activity against maximal electroshock-induced convulsion in Rattus norvegicus albino (rat) assessed as stupor convulsion time at 100 mg/kg administered 1 hr before test; format: functional
Rattus norvegicus [9] = assay: Anticonvulsant activity against maximal electroshock-induced convulsion in Rattus norvegicus albino (rat) assessed as clonus convulsion time at 100 mg/kg administered 1 hr before test; format: functional
Rattus norvegicus [10] = assay: Anticonvulsant activity against maximal electroshock-induced convulsion in Rattus norvegicus albino (rat) assessed as tonic flexor convulsion time at 100 mg/kg administered 1 hr before test; format: functional
Rattus norvegicus [11] = assay: Anticonvulsant activity against maximal electroshock-induced convulsion inRattus norvegicus albino (rat) assessed as stupor convulsion time at 50 mg/kg administered 1 hr before test; format: functional
Rattus norvegicus [12] = assay: Anticonvulsant activity against maximal electroshock-induced convulsion in Rattus norvegicus albino (rat) assessed as recovery from convulsion at 25 to 100 mg/kg administered 1 hr before test; format: functional, organism-based
Rattus norvegicus [13] = assay: Anticonvulsant activity against maximal electroshock-induced convulsion in Rattus norvegicus albino (rat) assessed as tonic extensor convulsion time at 100 mg/kg administered 1 hr before test; format: functional
Rattus norvegicus [14] = assay: Anticonvulsant activity against maximal electroshock-induced convulsion in Rattus norvegicus albino (rat) assessed as clonus convulsion time at 50 mg/kg administered 1 hr before test; format: functional

With `O=C1NC(=O)C(c2ccccc2)(c2ccccc2)N1` [PHENYTOIN] the Activity (Rattus norvegicus [1]) was “Active”, the Time (Rattus norvegicus [2]) was 0 s and the Time (Rattus norvegicus [3]) was 2.66 s. It also gave a Time (Rattus norvegicus [4]) of 4.6 s and a Time (Rattus norvegicus [5]) of 62.1 s.
In the case of `O=C1CC(=O)NC(=O)N1` [BARBITURIC ACID], the Time (Rattus norvegicus [6]) is reported as 6.5 s, the Time (Rattus norvegicus [7]) is reported as 3.1 s and the Time (Rattus norvegicus [8]) is reported as 85.7 s. It also gave a Time (Rattus norvegicus [9]) of 5.6 s, a Time (Rattus norvegicus [2]) of 13.2 s and a Time (Rattus norvegicus [3]) of 4.2 s. The Time (Rattus norvegicus [4]) was 7.2 s, the Time (Rattus norvegicus [5]) was 105.5 s and the Time (Rattus norvegicus [10]) was 2.9 s. For the same molecule, the Time (Rattus norvegicus [11]) was 82.2 s, the Activity (Rattus norvegicus [12]) was “Active” and the Time (Rattus norvegicus [13]) was 2 s. It also gave a Time (Rattus norvegicus [14]) of 5.1 s.
